Series [1] relates to fMLF/cytochalasin B (CB)-activated human neutrophils. Briefly: Superoxide anion generation (ferricytochrome c reduction) in fMLF/CB-activated human neutrophils. Type of series: cell-based. Particulars: Neutrophil, fMLF/CB stimulation, mean ± SEM (n = 3–5); for inhibition at 10 µM: 10 μM compound. The procedure:
(§1) The study involving neutrophils was approved by the Institutional Review Board of Chang Gung Memorial Hospital under IRB number: 201902217A3 and was conducted in accordance with the principles of the Declaration of Helsinki. Healthy volunteers aged 20–35 years provided signed informed consents for blood collection. Isolation of neutrophils was done using dextran sedimentation, Ficoll-Hypaque density gradient centrifugation, and hypotonic haemolysis. For the anti-inflammatory studies, neutrophils were suspended in Hank’s balanced salt solution (HBSS) containing 1 mM Ca^2+ at a pH of 7.4[72].
The reduction of ferricytochrome c was utilised to measure the production of SO anions in activated human neutrophils. […] The neutrophils were then stimulated with fMLF (0.1 μM) and CB (1 μg/mL) for 13 min. […] LY294002 was used as a positive control.

For series [2] the test system is unchanged. Briefly: Elastase release in fMLF/CB-activated human neutrophils. Format: cell-based. Particulars: fMLF/CB stimulation, mean ± SEM (n = 3–5); for inhibition at 10 µM: 10 μM compound. The protocol: as §1
Neutrophils were subsequently stimulated with fMLF (0.1 μM) and CB (0.5 μg/mL) for 13 min. […] LY294002 was used as a positive control.

For a further series, the system named is JNK. Briefly: Immunoblotting of JNK phosphorylation in fMLF-activated neutrophils. Particulars: 10 μM for 5 min, then fMLF 0.1 μM for 30 s. Format: cell-based, human. The procedure:
(§2) Human neutrophils (2.5 × 10^7 cells/mL) were first subjected to DMSO (0.1%, serving as control) or experimental compounds at 37 °C for 5 min. Following this, cells were stimulated with fMLF (0.1 μM) for 30 s. […] Primary antibodies used included those for p38 (1:8000), phospho-p38 (1:3000), JNK (1:3000), phospho-JNK (1:3000), Akt (1:5000), phospho-Akt (Ser-473) (1:2000), ERK (1:8000), phospho-ERK (1:8000), and HRP-linked anti-rabbit IgG, to measure total and phosphorylated forms of MAPK and Akt proteins. The quantitative measurements for all samples were adjusted to correspond with the levels of the total protein present.
For orientation: A western blot detects proteins with antibodies after separation by electrophoresis.

The next series deals with ERK. Briefly: Immunoblotting of ERK phosphorylation in fMLF-activated neutrophils. Format: cell-based, human. The settings on record: 10 μM for 5 min, then fMLF 0.1 μM for 30 s. The procedure:
as §2

For another series, the system named is p38 MAPK. Briefly: Immunoblotting of p38 MAPK phosphorylation in fMLF-activated neutrophils. Type of series: cell-based, human. The settings on record: 10 μM for 5 min, then fMLF 0.1 μM for 30 s. The protocol: as §2
The next series concerns Akt. The experiment in a line: Immunoblotting of Akt phosphorylation in fMLF-activated neutrophils. Type of series: cell-based, human. The settings on record: 10 μM for 5 min, then fMLF 0.1 μM for 30 s. The procedure: as §2
Series [3] deals with fMLF/cytochalasin B (CB)-activated human neutrophils. Briefly: Superoxide anion generation (ferricytochrome c reduction) in fMLF/CB-activated human neutrophils. Format: cell-based. The settings on record: 10 μM compound; cytochalasin B only.
The test system is the same in series [4]. Briefly: Elastase release in fMLF/CB-activated human neutrophils. Format: cell-based. The settings on record: 10 μM compound; cytochalasin B only.

One may read the inhibition as the relative decrease from the control value, in per cent. Low readings indicate little suppression, high ones strong suppression. In general, IC50 refers to the point on the concentration scale where inhibition reaches its midpoint. Low values mean greater potency, high ones weaker potency. Broadly, the melting point is the temperature of the solid-liquid transition. `COc1cccc(C(=O)/C=C/c2ccc([N+](=O)[O-])cc2)c1` [Compound 6a, (E)-1-(3-Methoxyphenyl)-3-(4-nitrophenyl)prop-2-en-1-one]: the melting point lay within 132.3 to 133.3 °C. In series [1], this compound returned an inhibition at 10 µM of 99.69 ± 0.18% and an IC50 of 1230 ± 270 nM. Moreover, in [2] (Homo sapiens, Neutrophil), at 10 µM the inhibition was 84.5 ± 5.73% and the IC50 is 1370 nM. In addition, in series [2], the half-inhibitory concentration (IC50) worked out at 2220 ± 120 nM. Further, in the series on JNK, the “Effect on JNK phosphorylation” value is listed as “significantly suppressed phosphorylation”. Besides, the “Effect on ERK phosphorylation” value with ERK is reported as “did not alter the phosphorylation”. In the series with p38 MAPK, the “Effect on p38 phosphorylation” value is “did not alter the phosphorylation”. Further, the “Effect on Akt phosphorylation” value in the series on Akt is reported as “significantly suppressed phosphorylation”.

With `O=C(/C=C/c1ccc(Cl)cc1)c1ccc(-c2ccccc2)cc1` [Compound 11a, (E)-1-([1,1′-Biphenyl]-4-yl)-3-(4-chlorophenyl)prop-2-en-1-one], in series [3], the “Induction of superoxide anion production” value is “an inducer rather than an inhibitor”.

Regarding `CC(C)(C)Oc1ccc(/C=C/C(=O)c2ccc[nH]2)cc1` [Compound 13, (E)-3-(4-(tert-Butoxy)phenyl)-1-(1H-pyrrol-2-yl)prop-2-en-1-one], the melting point lay within 116.5 to 118.5 °C. Further, the “Induction of superoxide anion production” value in series [3] is given as “induced also SO anion generation”. Further, the “Induction of elastase release” value in series [4] is listed as “induced elastase release”.

`COc1ccc(C(=O)/C=C/c2cc(F)cc(F)c2)cc1OC` [Compound 26a, (E)-3-(3,5-Difluorophenyl)-1-(3,4-dimethoxyphenyl)prop-2-en-1-one] gave a melting point of 132.8 to 134.8 °C. In addition, in [1], the inhibition at 10 µM was determined as 92.4 ± 2.19% and the IC50 came out at 1560 ± 270 nM. In addition, in series [2] (Homo sapiens, Neutrophil), the inhibition at 10 µM amounted to 20.2 ± 3.19%. The “Effect on JNK phosphorylation” value with JNK is given as “markedly diminished phosphorylation”. In addition, the “Effect on ERK phosphorylation” value in the series on ERK is “markedly diminished phosphorylation”. For the same compound, in the series with p38 MAPK, the “Effect on p38 phosphorylation” value is recorded as “markedly diminished phosphorylation”. Also, the “Effect on Akt phosphorylation” value in the series on Akt was “did not affect”.

`CC(C)(C)C(=O)/C=C/c1ccc(-c2ccccc2)cc1` [Compound 29, (E)-1-([1,1′-Biphenyl]-4-yl)-4,4-dimethylpent-1-en-3-one] gave a melting point of 128 to 130 °C. In series [1], this compound gave an inhibition at 10 µM of 2.23 ± 0.94%. In addition, the “Induction of elastase release” value in series [4] is listed as “induced elastase release”.

Values taken from publication PMC11413964, “Discovery of 1,3-disubstituted prop-2-en-1-one derivatives as inhibitors of neutrophilic inflammation via modulation of MAPK and Akt pathways” (Journal of Enzyme Inhibition and Medicinal Chemistry, 2024).
